Measurements from US7091033B2, “Array of toxicologically relevant canine genes and uses thereof” (Phase-1 Molecular Toxicology, Inc., priority 2000, dated 2006).

Key:
[1] = tested on: canine genes in a canine array (Canine kidney); experiment: Canine array fold induction of canine genes in kidney of dogs dosed with an agent (Table 11); assay type: in vivo; settings: Canine kidney, 0.8 mg/kg, 2 days
Excerpt: Table 11 depicts the fold induction for canine genes in a canine array.

[2] = tested on: canine genes differentially expressed in organs (liver, spleen, kidney, testes, heart, thymus); experiment: Transcriptome profiling / differential display of tissues from canines exposed to an agent versus vehicle (reverse transcription, PCR, reamplification of bands, sequencing); assay type: in vivo

`C[C@@H]1[C@H](O)[C@@H](C)/C=C/C=C/C=C/C=C/C=C/C=C/C=C/[C@H](O[C@@H]2O[C@H](C)[C@@H](O)[C@H](N)[C@@H]2O)C[C@@H]2O[C@](O)(C[C@@H](O)C[C@@H](O)[C@H](O)CC[C@@H](O)C[C@@H](O)CC(=O)O[C@H]1C)C[C@H](O)[C@H]2C(=O)O` [Amphoteracin-B] was tested, and the BR-cadherin fold induction [1] was 1.0, the Beta-glucuronidase fold induction [1] was 1.1 and the “CD40 ligand fold induction” value [1] was 2.2. It also gave a Catalase fold induction [1] of 1.6, a Caveolin-1 fold induction [1] of 1.2 and a Caveolin-2 fold induction [1] of 2.1. The “Cytochrome P450 2B fold induction” value [1] was 1.1, the “Cytochrome P450 2C41 fold induction” value [1] was 1.2 and the “Cytochrome P450 2D fold induction” value [1] was 1.6. The “Cytochrome P450 3A fold induction” value [1] was 1.2, the GRP94 fold induction [1] was 1.2 and the “Glucose transporter fold induction” value [1] was 1.3. For the same molecule, the “Glucose-regulated protein 94 #1 fold induction” value [1] was 1.2, the “Glucose-regulated protein 94 #2 fold induction” value [1] was 1.1 and the “Glutathione S-transferase alpha subunit fold induction” value [1] was 1.8. For the same molecule, the Interleukin-8 fold induction [1] was 1.2, the Interleukin-10 fold induction [1] was 5.9 and the “Keratinocyte growth factor fold induction” value [1] was 1.6. For the same molecule, the Mek5 fold induction [1] was 1.2, the “Metallothionein 1 fold induction” value [1] was 3.1 and the “Paraoxonase2 (PON2) fold induction” value [1] was 2.1. The “Phase-1 CCT-11 fold induction” value [1] was 1.1, the “Phase-1 CCT-59 fold induction” value [1] was 1.1 and the “Phase-1 CCT-60 fold induction” value [1] was 1.3. For the same molecule, the “Phase-1 CCT-63 fold induction” value [1] was 1.1, the “Phase-1 CCT-65 fold induction” value [1] was 1.1 and the “Phase-1 CCT-66 fold induction” value [1] was 1.1. For the same molecule, the “Phase-1 CCT-68 fold induction” value [1] was 1.1, the “Phase-1 CCT-72 fold induction” value [1] was 1.1 and the “Phase-1 CCT-73 fold induction” value [1] was 1.1. For the same molecule, the “Phase-1 CCT-74 fold induction” value [1] was 1.1, the “Phase-1 CCT-78 fold induction” value [1] was 1.1 and the “Phase-1 CCT-84 fold induction” value [1] was 1.5. For the same molecule, the “Phase-1 CCT-87 fold induction” value [1] was 1.0, the “Phase-1 CCT-91 fold induction” value [1] was 1.5 and the “Phase-1 CCT-92 fold induction” value [1] was 1.4. For the same molecule, the “Phase-1 CCT-94 fold induction” value [1] was 1.1, the “Phenol sulfotransferase fold induction” value [1] was 5.3 and the “Prostaglandin D synthase fold induction” value [1] was 1.4. The Rab2 fold induction [1] was 1.1, the Rab5 fold induction [1] was 1.1 and the Rab7 fold induction [1] was 1.1. For the same molecule, the “SHB (Src homology 2 protein) fold induction” value [1] was 1.2, the “Tumor necrosis factor-alpha fold induction” value [1] was 3.5 and the “UV excision repair protein RAD 23 (XP-C) fold induction” value [1] was 1.1. For the same molecule, the Ubiquitin fold induction [1] was 1.3, the “ZAP36/annexin IV fold induction” value [1] was 1.1 and the “c-erb B-2 fold induction” value [1] was 1.2. It also gave a p53 fold induction [1] of 1.2.

For `N.N.[Cl][Pt][Cl]` [cisplatin], the “Expression Pattern” value ([2]; Band # CTP31A, No significant match) was “upregulated in cisplatin”, the “Expression Pattern” value ([2]; Band # CTP41B, Homo sapiens mRNA for AB037813) was “repressed in cisplatin” and the “Expression Pattern” value ([2]; Band # CTP47G, No significant match) was “induced with cisplatin”. The “Expression Pattern” value ([2]; Band # CTP50A, No significant match) was “induced with cisplatin”, the “Expression Pattern” value ([2]; Band # CTP51A, Homo sapiens intestinal 1 AF219991) was “induced with cisplatin” and the “Expression Pattern” value ([2]; Band # CTP52B, No significant match) was “induced with cisplatin”. For the same molecule, the “Expression Pattern” value ([2]; Band # CTP53A, No significant match) was “induced with cisplatin”, the “Expression Pattern” value ([2]; Band # CTP59A, Homo sapiens cyclin D2 (XM_012143)) was “induced with cisplatin” and the “Expression Pattern” value ([2]; Band # CTP62A, No significant match) was “induced with cisplatin”. The “Expression Pattern” value ([2]; Band # CTP63A, No significant match) was “induced with cisplatin”, the “Expression Pattern” value ([2]; Band # CTP64B, No significant match) was “induced with cisplatin” and the “Expression Pattern” value ([2]; Band # CTP67A, clone RP5-1071L10 on cl AL133228) was “repressed with cisplatin”. For the same molecule, the “Expression Pattern” value ([2]; Band # CTP68F, Oryctolagus cuniculus Ne U09823) was “repressed with cisplatin”, the “Expression Pattern” value ([2]; Band # CTP70A, No significant match) was “repressed with cisplatin” and the “Expression Pattern” value ([2]; Band # CTP72B, No significant match) was “repressed with cisplatin”. For the same molecule, the “Expression Pattern” value ([2]; Band # CTP73A, Homo sapiens chromosor AC026201) was “repressed with cisplatin”, the “Expression Pattern” value ([2]; Band # CTP73B, No significant match) was “repressed with cisplatin” and the “Expression Pattern” value ([2]; Band # CTP74A, No significant match) was “repressed with carbo, trans and cisplatin”. The “Expression Pattern” value ([2]; Band # CTP75C, No significant match) was “repressed with carbo, trans and cisplatin”, the “Expression Pattern” value ([2]; Band # CTP76B, No significant match) was “induced with cisplatin” and the “Expression Pattern” value ([2]; Band # CTP77D, No significant match) was “repressed with cisplatin”. For the same molecule, the “Expression Pattern” value ([2]; Band # CTP78B, Homo sapiens SON DNA XM_009738) was “induced with cisplatin”, the “Expression Pattern” value ([2]; Band # CTP79B, No significant match) was “induced with cisplatin” and the “Expression Pattern” value ([2]; Band # CTP80A, Homo sapiens WDR4 ger AB039887) was “repressed with cisplatin”. The “Expression Pattern” value ([2]; Band # CTP81A, No significant match) was “induced with cisplatin”, the “Expression Pattern” value ([2]; Band # CTP85D, Homo sapiens Rho-assoc XM_008814) was “repressed with carbo, trans and cisplatin” and the “Expression Pattern” value ([2]; Band # CTP86F, Homo sapiens chromodoi NM_001272) was “induced with cisplatin”. The “Expression Pattern” value ([2]; Band # CTP87B, Homo sapiens tetratricopi XM_009760) was “induced with cisplatin”, the “Expression Pattern” value ([2]; Band # CTP88A, Rattus norvegicus ribosor NM_022506) was “repressed with cisplatin” and the “Expression Pattern” value ([2]; Band # CTP89B, Homo sapiens genomic [AP003473) was “induced with cisplatin”. For the same molecule, the “Expression Pattern” value ([2]; Band # CTP90A, Homo sapiens clone 248(AF070622)) was “induced with cisplatin”, the “Expression Pattern” value ([2]; Band # CTP92A, No significant match) was “induced with cisplatin” and the “Expression Pattern” value ([2]; Band # CTP92C, Human DNA sequence fn AL133286) was “induced with cisplatin”. The “Expression Pattern” value ([2]; Band # CTP93F, clone RP1-211D12 on ch Z93016) was “induced with cisplatin”, the “Expression Pattern” value ([2]; Band # CTP94B, Homo sapiens clathrin, h NM_008305) was “induced with cisplatin” and the “Expression Pattern” value ([2]; Band # CTP99A, No significant match) was “repressed with cisplatin”. For the same molecule, the “Expression Pattern” value ([2]; Band # CTP100A, COX15 (yeast) homolog, BC002382) was “induced with cisplatin”, the “Expression Pattern” value ([2]; Band # CTP103JJ, No significant match) was “induced with cisplatin” and the “Expression Pattern” value ([2]; Band # CTP104I, No significant match) was “repressed with cisplatin”. For the same molecule, the “Expression Pattern” value ([2]; Band # CTP109P, No significant match) was “induced with cisplatin”, the “Expression Pattern” value ([2]; Band # CTP110A, No significant match) was “induced with cisplatin” and the “Expression Pattern” value ([2]; Band # CTP111A, No significant match) was “induced with cisplatin”. The “Expression Pattern” value ([2]; Band # CTP112B, Bos taurus peroxiredoxin AF305561) was “induced with cisplatin”, the “Expression Pattern” value ([2]; Band # CTP113A, Box taurus ribosomal proi AF063243) was “induced with cisplatin” and the “Expression Pattern” value ([2]; Band # CTP115B, Homo sapiens chromosoi AC005899) was “induced with cisplatin”. For the same molecule, the “Expression Pattern” value ([2]; Band # CTP116A, No significant match) was “induced with cisplatin”, the “Expression Pattern” value ([2]; Band # CTP117B, Homo sapiens similar to XM_017740) was “induced with cisplatin” and the “Expression Pattern” value ([2]; Band # CTP119J, H. sapiens SPR-2 mRNA 1X68560 S52) was “induced with cisplatin”. For the same molecule, the “Expression Pattern” value ([2]; Band # CTP121D, Human ribosomal protein U43701) was “induced with cisplatin”, the “Expression Pattern” value ([2]; Band # CTP124B, No significant match) was “induced with cisplatin” and the “Expression Pattern” value ([2]; Band # CTP126A, No significant match) was “induced with cisplatin”. For the same molecule, the “Expression Pattern” value ([2]; Band # CTP131B, Homo sapiens similar to s XM_006087) was “induced with cisplatin”, the “Expression Pattern” value ([2]; Band # CTP133B, No significant match) was “induced with cisplatin” and the “Expression Pattern” value ([2]; Band # CTP134A, No significant match) was “induced with cisplatin”. For the same molecule, the “Expression Pattern” value ([2]; Band # CTP135A, Homo sapiens cDNA FLJAK021570) was “induced with cisplatin”, the “Expression Pattern” value ([2]; Band # CTP300B, Homo sapiens utrophin (I-NM_007124)) was “repressed with cisplatin” and the “Expression Pattern” value ([2]; Band # CTP304B, Homo sapiens unknov XM_002211) was “induced with cisplatin”. For the same molecule, the “Expression Pattern” value ([2]; Band # CTP306B, No significant match) was “induced with cisplatin”, the “Expression Pattern” value ([2]; Band # CTP308KK, No significant match) was “induced with cisplatin” and the “Expression Pattern” value ([2]; Band # CTP309A, No significant match) was “repressed with cisplatin”.
